The values that follow come from PubChem BioAssay AID651862 (Vanderbilt Specialized Chemistry Center, 2012).

The test system of the experiment is SW620/H520 cells, E-cadherin In-Cell Western. Put plainly: CDH1 protein re-expression in cancer cells – SW620 and H520 cells, In-Cell Western (AID 651862).

Each structure is given as a SMILES string. Calls of active or inactive are those of the source.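 The calls were made as follows: active = tubulin-normalized E-cadherin at least double the DMSO level by western blot, or significantly raised by in-cell western; inactive = the rest.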

By EC50 is commonly meant the midpoint of the concentration-response curve. As for `O=C(NCCCNCc1cnoc1)c1cc(-c2ccccc2)on1`, the EC50 is 12 µM (inactive).
Take `O=C(NCCCNC(=O)c1ccc[nH]c1=O)c1cc(-c2ccccc2)on1`: the EC50 was 2.22 µM.
Consider `[N-]=[N+]=Nc1nccc(NCCCNC(=O)c2cc(-c3ccccc3)on2)n1`, for which the EC50 was 2.55 µM.
Consider `N#Cc1ccc(NCCCNC(=O)c2cc(-c3ccccc3)on2)nc1`, for which the EC50 is 3.13 µM.
For `O=C(NCCNC(=O)c1nccs1)c1cc(-c2ccccc2)on1`, the EC50 was 3.82 µM.
In the case of `O=C(NCCCNCc1ccc(O)c(O)c1)c1cc(-c2ccccc2)on1`, the EC50 is 4.56 µM.
